Results taken from PubChem BioAssay AID1845205 (Molecular Pharmacology Branch, DTP, NCI, 2023).
Where “and” joins values, the source holds several entries; their conditions need not be identical. Identical values can stand only once.

System: MPNST multicellular tumor spheroids, viability % test/control
Experiment: Anticancer human tumor MPNST cell line growth inhibition;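 note: spheroids exposed to agents for seven days after three days of growth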;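 for viability, T/C: luminescence signal used as surrogate for viable cell amount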
Details: for viability, T/C: stronger effect = lower value
How it was run: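 Complex spheroids of malignant cells with endothelial cells and mesenchymal stem cells; agents alone or combined, from near clinical Cmax (or 10 microM if unknown) down in half-log steps, 0.25% DMSO final.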

[1] = curve of first compound, second compound 1 µM
[2] = curve of first compound, second compound 3.16 µM
[3] = curve of first compound, second compound 10 µM
[4] = curve of first compound, second compound 31.6 µM
[5] = curve of first compound, second compound 100 µM
[6] = second compound 1 µM, first compound 0.00949 µM
[7] = second compound 1 µM, first compound 0.03 µM
[8] = second compound 1 µM, first compound 0.0949 µM
[9] = second compound 1 µM, first compound 0.3 µM
[10] = second compound 1 µM, first compound 0.949 µM
[11] = second compound 1 µM, first compound 3 µM
[12] = second compound 3.16 µM, first compound 0.00949 µM
[13] = second compound 3.16 µM, first compound 0.03 µM
[14] = second compound 3.16 µM, first compound 0.0949 µM
[15] = second compound 3.16 µM, first compound 0.3 µM
[16] = second compound 3.16 µM, first compound 0.949 µM
[17] = second compound 3.16 µM, first compound 3 µM
[18] = second compound 10 µM, first compound 0.00949 µM
[19] = second compound 10 µM, first compound 0.03 µM
[20] = second compound 10 µM, first compound 0.0949 µM
[21] = second compound 10 µM, first compound 0.3 µM
[22] = second compound 10 µM, first compound 0.949 µM
[23] = second compound 10 µM, first compound 3 µM
[24] = second compound 31.6 µM, first compound 0.00949 µM
[25] = second compound 31.6 µM, first compound 0.03 µM
[26] = second compound 31.6 µM, first compound 0.0949 µM
[27] = second compound 31.6 µM, first compound 0.3 µM
[28] = second compound 31.6 µM, first compound 0.949 µM
[29] = second compound 31.6 µM, first compound 3 µM
[30] = second compound 100 µM, first compound 0.00949 µM
[31] = second compound 100 µM, first compound 0.03 µM
[32] = second compound 100 µM, first compound 0.0949 µM
[33] = second compound 100 µM, first compound 0.3 µM
[34] = second compound 100 µM, first compound 0.949 µM
[35] = second compound 100 µM, first compound 3 µM

CNCc1ccc(-c2cc(-c3nc(-c4ccc(S(=O)(=O)C(C)C)cc4)cnc3N)on2)cc1 + Cn1nnc2c(C(N)=O)ncn2c1=O
IC50 [1]: > 3000 nM | IC50 [2]: > 3000 nM | IC50 [3]: > 3000 nM | IC50 [4]: > 3000 nM | IC50 [5]: > 3000 nM | viability, T/C [6]: 110% | viability, T/C [7]: 102% | viability, T/C [8]: 83% | viability, T/C [9]: 77.9% | viability, T/C [10]: 63.1% | viability, T/C [11]: 63.8% | viability, T/C [12]: 125% | viability, T/C [13]: 120% | viability, T/C [14]: 97.9% | viability, T/C [15]: 75.3% | viability, T/C [16]: 64.8% | viability, T/C [17]: 61.1% | viability, T/C [18]: 95.6% | viability, T/C [19]: 114% | viability, T/C [20]: 98.5% | viability, T/C [21]: 74.8% | viability, T/C [22]: 71.8% | viability, T/C [23]: 69.5% | viability, T/C [24]: 105% | viability, T/C [25]: 81.1% | viability, T/C [26]: 79.8% | viability, T/C [27]: 66.6% | viability, T/C [28]: 58% | viability, T/C [29]: 64.3% | viability, T/C [30]: 92.1% | viability, T/C [31]: 95.7% | viability, T/C [32]: 83% | viability, T/C [33]: 61.4% | viability, T/C [34]: 58.5% | viability, T/C [35]: 61.7%

Cn1ncnc1[C@H]1c2n[nH]c(=O)c3cc(F)cc(c23)N[C@@H]1c1ccc(F)cc1 + Cn1nnc2c(C(N)=O)ncn2c1=O
IC50 [1]: 2760 nM | IC50 [2]: > 3000 nM | IC50 [3]: > 3000 nM | IC50 [4]: 505 nM | IC50 [5]: 27 nM | viability, T/C [6]: 93.1% | viability, T/C [7]: 77.1% | viability, T/C [8]: 70.3% | viability, T/C [9]: 58.9% | viability, T/C [10]: 52% | viability, T/C [11]: 50.8% | viability, T/C [12]: 77.7% | viability, T/C [13]: 74% | viability, T/C [14]: 74.2% | viability, T/C [15]: 55.2% | viability, T/C [16]: 53.7% | viability, T/C [17]: 52.7% | viability, T/C [18]: 79% | viability, T/C [19]: 71.6% | viability, T/C [20]: 63.9% | viability, T/C [21]: 55.8% | viability, T/C [22]: 51.7% | viability, T/C [23]: 51.7% | viability, T/C [24]: 61.7% | viability, T/C [25]: 56% | viability, T/C [26]: 58.1% | viability, T/C [27]: 48.9% | viability, T/C [28]: 48.2% | viability, T/C [29]: 46.5% | viability, T/C [30]: 52.5% | viability, T/C [31]: 50% | viability, T/C [32]: 49% | viability, T/C [33]: 46.2% | viability, T/C [34]: 47.5% | viability, T/C [35]: 48.3%

CNCc1ccc(-c2cc(-c3nc(-c4ccc(S(=O)(=O)C(C)C)cc4)cnc3N)on2)cc1
viability, T/C (compound 0.00949 µM): 119% and 97.4% and 89.4% | viability, T/C (compound 0.03 µM): 113% and 110% and 98.9% | viability, T/C (compound 0.0949 µM): 100% and 81.1% and 87.2% | viability, T/C (compound 0.3 µM): 74.1% and 69.5% and 55.1% | viability, T/C (compound 0.949 µM): 61.8% and 69.6% and 42.9% | viability, T/C (compound 3 µM): 65.9% and 69.1% and 43.7% | IC50 (curve of compound): > 3000 nM and 495 nM

O=C(c1cc(Cc2n[nH]c(=O)c3ccccc23)ccc1F)N1CCN(C(=O)C2CC2)CC1
viability, T/C (compound 0.0949 µM): 88.3% and 108% and 83.2% | viability, T/C (compound 0.3 µM): 75.1% and 84.1% and 60.3% | viability, T/C (compound 0.949 µM): 79.3% and 91.9% and 51.5% | viability, T/C (compound 3 µM): 95.2% and 96.5% and 51.2% | viability, T/C (compound 9.49 µM): 68.4% and 72.2% and 27.7% | viability, T/C (compound 30 µM): 49.3% and 56.8% and 28%

[2H]c1nc(C)nc([2H])c1-c1cc(NC[C@@H](C)c2cccc3c(C(=O)NC)ccnc23)ncn1 + CC[C@@]1(O)C(=O)OCc2c1cc1n(c2=O)Cc2cc3c(CN(C)C)c(O)ccc3nc2-1
IC50 (curve of first compound, second compound 0.003 µM): > 10000 nM | IC50 (curve of first compound, second compound 0.00949 µM): > 10000 nM | IC50 (curve of first compound, second compound 0.03 µM): < 31.6 nM | IC50 (curve of first compound, second compound 0.0949 µM): < 31.6 nM | IC50 (curve of first compound, second compound 0.3 µM): < 31.6 nM | viability, T/C (second compound 0.003 µM, first compound 0.0316 µM): 96.5% | viability, T/C (second compound 0.003 µM, first compound 0.1 µM): 107% | viability, T/C (second compound 0.003 µM, first compound 0.316 µM): 93.5% | viability, T/C (second compound 0.003 µM, first compound 1 µM): 99.7% | viability, T/C (second compound 0.003 µM, first compound 3.16 µM): 92.4% | viability, T/C (second compound 0.003 µM, first compound 10 µM): 67.8% | viability, T/C (second compound 0.00949 µM, first compound 0.0316 µM): 74.5% | viability, T/C (second compound 0.00949 µM, first compound 0.1 µM): 58.1% | viability, T/C (second compound 0.00949 µM, first compound 0.316 µM): 77.8% | viability, T/C (second compound 0.00949 µM, first compound 1 µM): 74.2% | viability, T/C (second compound 0.00949 µM, first compound 3.16 µM): 49.4% | viability, T/C (second compound 0.00949 µM, first compound 10 µM): 59.9% | viability, T/C (second compound 0.03 µM, first compound 0.0316 µM): 39.3% | viability, T/C (second compound 0.03 µM, first compound 0.1 µM): 39.7% | viability, T/C (second compound 0.03 µM, first compound 0.316 µM): 37.6% | viability, T/C (second compound 0.03 µM, first compound 1 µM): 36.4% | viability, T/C (second compound 0.03 µM, first compound 3.16 µM): 37.8% | viability, T/C (second compound 0.03 µM, first compound 10 µM): 36.2% | viability, T/C (second compound 0.0949 µM, first compound 0.0316 µM): 38.5% | viability, T/C (second compound 0.0949 µM, first compound 0.1 µM): 37.5% | viability, T/C (second compound 0.0949 µM, first compound 0.316 µM): 39.4% | viability, T/C (second compound 0.0949 µM, first compound 1 µM): 35.4% | viability, T/C (second compound 0.0949 µM, first compound 3.16 µM): 34% | viability, T/C (second compound 0.0949 µM, first compound 10 µM): 35.1% | viability, T/C (second compound 0.3 µM, first compound 0.0316 µM): 33.1% | viability, T/C (second compound 0.3 µM, first compound 0.1 µM): 31% | viability, T/C (second compound 0.3 µM, first compound 0.316 µM): 29.9% | viability, T/C (second compound 0.3 µM, first compound 1 µM): 30.8% | viability, T/C (second compound 0.3 µM, first compound 3.16 µM): 28.1% | viability, T/C (second compound 0.3 µM, first compound 10 µM): 25.9%

Cc1cc(C)c(CNC(=O)c2cc(-c3ccc(CN4CCOCC4)cc3)cc3c2cnn3C2CCCC2)c(=O)[nH]1
viability, T/C (compound 0.0316 µM): 75.2% and 93.7% and 93.8% | viability, T/C (compound 0.1 µM): 119% and 109% and 93.5% | viability, T/C (compound 0.316 µM): 90.4% and 118% and 91.3% | viability, T/C (compound 1 µM): 97.2% and 101% and 92.3% | viability, T/C (compound 3.16 µM): 107% and 114% and 98.7% | viability, T/C (compound 10 µM): 79.3% and 100% and 107% | IC50 (curve of compound): > 10000 nM
